According to the NIST ThermoML archive (doi:10.1016/j.tca.2011.02.027):

Legend:
[1] = Crystal; DTA
[2] = molar heat capacity at constant pressure; conditions: 101.33 kPa, Liquid, Large sample (1 g) DSC
[3] = molar heat capacity at constant pressure; xn = mol fraction of the nth substance listed; conditions: 101.3 kPa, Liquid, Large sample (1 g) DSC

CCCCn1cc[n+](C)c1.[Br-] [1-butyl-3-methylimidazolium bromide]
Conditions | Normal melting temperature [°C]
[1] | 73.00

[2]
Conditions | molar heat capacity at constant pressure [J/K/mol]
353.2 K | 334.8
358.2 K | 338.1
363.2 K | 341.1
368.2 K | 344.6
373.2 K | 347.5
378.2 K | 350.6
383.2 K | 354.1
388.2 K | 356.7
393.2 K | 359.9
398.2 K | 363.4
403.2 K | 366.4

CCCCn1cc[n+](C)c1C.F[B-](F)(F)F [1-butyl-2,3-dimethylimidazolium tetrafluoroborate] + O
molar heat capacity at constant pressure [J/K/mol], [3]
Conditions | x1 = 0.2 | x1 = 0.4 | x1 = 0.6 | x1 = 0.8 | x1 = 1
303.2 K | 146.9 | 217.5 | 284.4 | 343 | –
308.2 K | 147.2 | 218.2 | 285.6 | 344.2 | –
313.2 K | 147.8 | 219.3 | 287 | 346.3 | 397.3
318.2 K | 148.4 | 220.4 | 288.6 | 348.5 | 398.8
323.2 K | 149.1 | 221.7 | 290.3 | 351 | 400.6
328.2 K | 149.8 | 223.2 | 292.1 | 353.2 | 403.3
333.2 K | 150.4 | 224.1 | 293.5 | 355.6 | 405.4
338.2 K | 151.1 | 225.2 | 295.7 | 358.1 | 407.8
343.2 K | 151.7 | 226.4 | 297.6 | 360.8 | 410.6
348.2 K | 152.4 | 227.7 | 299.5 | 363.5 | 413.5
353.2 K | 153.1 | 229.2 | 301.7 | 366.3 | 416.5
358.2 K | – | – | – | – | 420.2
363.2 K | – | – | – | – | 423.6
368.2 K | – | – | – | – | 427.3
373.2 K | – | – | – | – | 430.6
378.2 K | – | – | – | – | 434.4
383.2 K | – | – | – | – | 436.3

CCCCn1cc[n+](C)c1.[Cl-] [1-butyl-3-methylimidazolium chloride] + O
molar heat capacity at constant pressure [J/K/mol], [3]
Conditions | x1 = 0.2 | x1 = 0.4 | x1 = 0.6 | x1 = 0.8 | x1 = 1
303.2 K | 125.6 | 170.2 | 218.6 | 272.6 | –
308.2 K | 126.7 | 171.6 | 220 | 274.4 | –
313.2 K | 127.7 | 173 | 221.8 | 276.3 | –
318.2 K | 128.6 | 174.5 | 223.9 | 279.3 | –
323.2 K | 129.9 | 176.2 | 225.9 | 280.9 | –
328.2 K | 130.9 | 177.6 | 228 | 282.9 | –
333.2 K | 131.8 | 179 | 230 | 285.5 | –
338.2 K | 133.1 | 180.5 | 232 | 288.2 | –
343.2 K | 133.8 | 182.2 | 234.1 | 290.5 | 337.2
348.2 K | 135.2 | 183.6 | 236.4 | 293.1 | 340.3
353.2 K | 136 | 185.9 | 238.6 | 296.3 | 343.3
358.2 K | – | – | – | – | 347.1
363.2 K | – | – | – | – | 350.6
368.2 K | – | – | – | – | 354.3
373.2 K | – | – | – | – | 357.6
378.2 K | – | – | – | – | 361
383.2 K | – | – | – | – | 364.3
388.2 K | – | – | – | – | 367.4
393.2 K | – | – | – | – | 370.7
398.2 K | – | – | – | – | 374
403.2 K | – | – | – | – | 376.8

CCCCn1cc[n+](C)c1C.F[P-](F)(F)(F)(F)F [1-butyl-2,3-dimethylimidazolium hexafluorophosphate]
Conditions | Normal melting temperature [°C]
[1] | 38.00

[2]
Conditions | molar heat capacity at constant pressure [J/K/mol]
323.2 K | 439.3
328.2 K | 442.9
333.2 K | 446.2
338.2 K | 449.4
343.2 K | 452.7
348.2 K | 457
353.2 K | 460.1
358.2 K | 464.4
363.2 K | 468
368.2 K | 471.6
373.2 K | 475.1
378.2 K | 478.9
383.2 K | 482.6

CCCCn1cc[n+](C)c1.[Cl-] [1-butyl-3-methylimidazolium chloride]
Conditions | Normal melting temperature [°C]
[1] | 57.00

[2]
Conditions | molar heat capacity at constant pressure [J/K/mol]
343.2 K | 337.2
348.2 K | 340.3
353.2 K | 343.3
358.2 K | 347.1
363.2 K | 350.6
368.2 K | 354.3
373.2 K | 357.6
378.2 K | 361
383.2 K | 364.3
388.2 K | 367.4
393.2 K | 370.7
398.2 K | 374
403.2 K | 376.8

CCCCn1cc[n+](C)c1C.F[B-](F)(F)F [1-butyl-2,3-dimethylimidazolium tetrafluoroborate]
Conditions | Normal melting temperature [°C]
[1] | 32.00

[2]
Conditions | molar heat capacity at constant pressure [J/K/mol]
313.2 K | 397.3
318.2 K | 398.8
323.2 K | 400.6
328.2 K | 403.3
333.2 K | 405.4
338.2 K | 407.8
343.2 K | 410.6
348.2 K | 413.5
353.2 K | 416.5
358.2 K | 420.2
363.2 K | 423.6
368.2 K | 427.3
373.2 K | 430.6
378.2 K | 434.4
383.2 K | 436.3

CCCCn1cc[n+](C)c1C.F[P-](F)(F)(F)(F)F [1-butyl-2,3-dimethylimidazolium hexafluorophosphate] + O
molar heat capacity at constant pressure [J/K/mol], [3]
Conditions | x1 = 0.8 | x1 = 0.85 | x1 = 0.9 | x1 = 0.95 | x1 = 1
303.2 K | 387 | 396.4 | 407.2 | 418.3 | –
308.2 K | 389.2 | 398.4 | 409.4 | 420.5 | –
313.2 K | 391.2 | 400.5 | 411.9 | 423.3 | –
318.2 K | 393.4 | 402.7 | 414.5 | 426 | –
323.2 K | 395.9 | 405.5 | 417.7 | 429.4 | 439.3
328.2 K | 398.9 | 408.8 | 421.3 | 433.2 | 442.9
333.2 K | 401.8 | 411.9 | 424.7 | 436.7 | 446.2
338.2 K | 404.5 | 414.9 | 428 | 440.1 | 449.4
343.2 K | 407.5 | 417.9 | 431.2 | 443.5 | 452.7
348.2 K | 411.1 | 421.7 | 435.2 | 447.6 | 457
353.2 K | 414.1 | 424.8 | 438.3 | 450.9 | 460.1
358.2 K | – | – | – | – | 464.4
363.2 K | – | – | – | – | 468
368.2 K | – | – | – | – | 471.6
373.2 K | – | – | – | – | 475.1
378.2 K | – | – | – | – | 478.9
383.2 K | – | – | – | – | 482.6
